Measurements as given in patent US8647824B2, “Microbial reductive dehalogenation of vinyl chloride” (The Board of Trustees of the Leland Stanford Junior …, priority 2004, dated 2014).
Values joined by “and” are separate entries in the source; they are usually repeats but may differ in a detail not shown here. Equal entries are not always repeated.

Assays:
Pinellas culture = assay: Batch dechlorination and growth kinetics, Pinellas culture; type: cell-based, Dehalococcoides-like microorganisms
Text: (§1) Stock cultures. The Victoria mixed culture, containing strain VS, was maintained in a closed continuously stirred tank reactor (CSTR) as previously described. A VC enrichment of this culture, maintained over 5 years, was also used in these investigations. Liquid cultures of the three other cultures evaluated (Pinellas, KB-1/VC, and Dehalococcoides ethenogenes strain 195) were kept in anaerobic bottles, stored in an anaerobic chamber (10% H2, 10% CO2, 80% N2). The bottles were amended with TCE (1-3 μL neat liquid), VC (250 μL gas), and PCE (1-3 μL neat liquid) being added to each, respectively, approximately every two weeks.
(§2) Batch studies. For the experimental portion of this research, two studies were undertaken, one a comparative VC growth study, and the other a comparative growth and substrate utilization study with different chlorinated ethenes. These studies compared the dechlorination abilities of Dehalococcoides ethenogenes strain 195 and the Dehalococcoides-like microorganisms in the three mixed cultures (Victoria, KB-1/VC, and Pinellas).
(§3) For the first study, a VC enriched inoculum was first developed for each of the three mixed cultures. Here, bottles (120 mL) were filled with 60 mL of anaerobic media in an anaerobic chamber as previously described, and inoculated with 200 μL of each stock culture. Gaseous VC (99.5%) was added with a gas tight syringe (200 μL). The cultures were then moved to a shaker (60-80 rpm) in an anaerobic chamber (20±2° C.). Immediately after 5 μmol of ethene was formed in a bottle, 200 μL of the culture was transferred to fresh media (60 mL), in triplicate, and VC was again added (200 μL). The inoculum for the growth study was that formed after exactly 4 μmol of ethene was produced following this second transfer. To compare growth rates on VC, a range in concentration of each inocula (0.1, 0.3, 1, 3, 9 mL) was transferred to fresh media (as above) to result in a liquid volume of 60 mL, and gaseous VC (200 μL) was added to each. […] Hydrogen served as the electron donor and was non-limiting (>3%) in all studies. Headspace samples were periodically removed by syringe (250 μL) for chlorinated ethene analyses.
(§4) The purpose of the second study was to compare dechlorination rates of PCE, TCE and DCE between the three different cultures that grew on VC (Victoria, KB-1/VC and Pinellas). The development of inocula here was performed with VC, just as in the first study. For the growth and substrate utilization experiments, triplicate bottles were set up for each culture containing 1 mL of inoculum and either neat PCE (0.4 μL), neat TCE (0.3 μL), saturated DCE solution (34 μL) or gaseous VC (200 μL). To further investigate TCE removal, bottles (120 mL) were filled with 20 mL of a highly enriched culture of strain VS made from the Victoria culture. Duplicate bottles were supplied with gaseous VC (50 μL on day 0, then 150 μL on day 3) or TCE (0.4 μL neat liquid). Dechlorination was followed until all VC or TCE was converted to ethene (day 12). The change in strain VS concentration during VC and TCE utilization was then determined both by competitive PCR and by an activity procedure evaluated previously for strain VS. In the activity procedure a non-growth limiting concentration of VC (150 μL) along with excess hydrogen is added to a culture and the initial dechlorination rate is measured (over <1 day). A good estimate of strain VS concentration can then be obtained using the previously determined strain VS maximum VC utilization rate (7.8×10^−10 μmol Cl^− (cell·d)^−1). The increase in strain VS concentration during TCE or VC utilization was determined with these two procedures on the culture before and after TCE and VC utilization.
(§5) Comparative dechlorination and growth kinetics. With mixed cultures, the concentration of organisms carrying out a particular reaction is generally unknown and difficult to determine. […]

[1] = system: Dehalococcoides ethenogenes strain 195; assay: Batch dechlorination, D. ethenogenes strain 195 culture; type: cell-based; conditions: cultures supplied with VC or DCE
Text: as §1, §2
For the first study, a VC enriched inoculum was first developed for each of the three mixed cultures. Here, bottles (120 mL) were filled with 60 mL of anaerobic media in an anaerobic chamber as previously described, and inoculated with 200 μL of each stock culture. Gaseous VC (99.5%) was added with a gas tight syringe (200 μL). […]

[2] = system: Victoria mixed culture, containing strain VS; assay: Batch dechlorination and growth kinetics, Victoria mixed culture; type: cell-based, Dehalococcoides species strain VS
Text: as §1, §2, §3, §4, §5

KB-1/VC culture = assay: Batch dechlorination and growth kinetics, KB-1/VC culture; type: cell-based, Dehalococcoides-like microorganisms
Text: as §1, §2, §3, §4, §5

[3] = system: VC reductive dehalogenase of Dehalococcoides sp. strain VS; assay: VC-reduction enzyme assay with Ti(III)-reduced methyl viologen as electron donor, gas chromatography; type: biochemical
Description: Enzyme assays. Cells were harvested by centrifugation (20,000 g, 20 min, 4° C.) under strictly anoxic conditions using the anoxic chamber, washed and resuspended in degassed MOPS buffer (20 mM, pH 7.2) supplemented with 2 mM DTE and 0.2 mM titanium(III)NTA (buffer A). The buffer was incubated overnight in the anoxic chamber before addition of reducing agents. Cell-free extracts were obtained by anoxic disruption of cells by French Press treatment (138 MPa; two passages), followed by two centrifugation steps (30,000×g, 15 min, 4° C.).
Assays of VC-reduction were conducted as described previously in 2-ml glass vials under an N2/H2 atmosphere with Ti(III)-reduced methyl viologen as artificial electron donor (Rosner et al.) The protein concentration in the assay varied between 10 and 100 μg/ml. The test was started by addition of gaseous VC to the assay mix (total aqueous volume 0.3 ml), and change in VC and ethene concentrations were followed with time by gas chromatography. Experiments testing for reduction of liquid chlorinated ethenes (PCE, TCE, DCE-isomers) were carried out essentially as described above with the appropriate substitution of the chlorinated ethene. The chlorinated compounds were added from aqueous stock solutions.
Oxygen sensitivity of VC-reducing activity in cell-free extract was investigated in buffer amended with resazurin as redox indicator. Prior to addition of VC, the assay was exposed to air until the resazurin underwent a color-change from colorless to pink. Subsequently, the assay was rendered anoxic again by exchanging the gas phase inside the anoxic chamber followed by addition of Ti(III)NTA (5 mM final concentration). All enzyme assays were carried out at ambient temperature, and given activities are means of at least three independent measurements.
Partial purification of VC reductase. Protein purification was performed at 4° C. in the anoxic chamber. The membrane fraction was obtained by centrifugation of cell-free extract at 100,000×g for 90 min at 4° C. The pellet was resuspended in 1 ml buffer A supplemented with 2 mM 3-[(3-cholamidopropyl)dimethylammonio]-1-propanesulfonic acid (CHAPS), and incubated for 1 h on ice. After subsequent centrifugation (100,000×g, 90 min, 4° C.) the solubilized membrane fraction was diluted with an equal volume of buffer B (50 mM 1,3-Bis[tris(hydroxymethyl)methylamino]propane (Bis-Tris Propane), pH 9.6, 2 mM dithiothreitol, 0.2 mM titanium(III)NTA, 20 mM CHAPS), and loaded on a 1-ml HighTrap Q column (Amersham Pharmacia) equilibrated with buffer C (same as buffer B but with 2 mM CHAPS). VC reductive dehalogenase activity was eluted as a single peak (at 550 to 580 mM NaCl) with 10 ml buffer C followed by a 40-ml linear gradient from 0-700 mM NaCl in buffer C at a flow of 1 ml/min. Fractions containing the highest activity were pooled and mixed with an equal volume of buffer A containing 20 mM CHAPS, and applied to a Superose-6 column equilibrated with the same buffer. Enzyme activity was eluted with buffer A at a flow rate of 0.2 ml/min. The protein concentration of the samples was determined according to Bradford with bovine serum albumin as a standard.

Cl/C=C\Cl [DCE, cis-1,2-dichloroethene]
Maximum Growth Rate (Pinellas culture; 95% confidence interval): 0.43 day⁻¹ and 0.43 ± 0.00 day⁻¹
dechlorination by D. ethenogenes strain 195 [1]: did dechlorinate DCE to VC
Maximum Growth Rate ([2]; VS Mixed (Victoria) culture, 95% confidence interval, least-squares model fit): 0.46 ± 0.04 day⁻¹
Maximum Growth Rate (KB-1/VC culture; 95% confidence interval): 0.44 ± 0.02 day⁻¹

ClC(Cl)=C(Cl)Cl [PCE, tetrachloroethene]
PCE dechlorination (Pinellas culture): failed to dechlorinate
lag period before PCE dechlorination ([2]; Victoria mixed culture): 6 to 12 days
PCE dechlorination (KB-1/VC culture): failed to dechlorinate
transformation during the course of the enzyme assay ([3]; 2 h): not transformed
effect on the reduction rate of VC ([3]; saturating concentrations of PCE or TCE present): not affected

B1: VC reductive dehalogenase: VC reductive dehalogenase partially purified from Dehalococcoides sp. strain VS; corrinoid/iron-sulfur cluster reductive dehalogenase (protein)
chain: MSKFHKTISRRDFMKGLGLAGAGIGAVAASAPVFHDIDELVSSEANSTKDQPWYVKHREHFDPTITVDWDIFDRYDGYQHKGVYEGPPDAPFTSWGNRLQVRMSGEEQKKRILAAKKERFPGWDGGLHGRGDQRADALFYAVTQPFPGSGEEGHGLFQPYPDQPGKFYARWGLYGPPHDSAPPDGSVPKWEGTPEDNFLMLRAAAKYFGAGGVGALNLADPKCKKLIYKKAQPMTLGKGTYSEIGGPGMIDAKIYPKVPDHAVPINFKEADYSYYNDAEWVIPTKCESIFTFTLPQPQELNKRTGGIAGAGSYTVYKDFARVGTLVQMFIKYLGYHALYWPIGWGPGGCFTTFDGQGEQGRTGAAIHWKFGSSQRGSERVITDLPIAPTPPIDAGMFEFCKTCYICRDVCVSGGVHQEDEPTWDSGNWWNVQGYLGYRTDWSGCHNQCGMCQSSCPFTYLGLENASLVHKIVKGVVANTTVFNSFFTNMEKALGYGDLTMENSNWWKEEGPIYGFDPGT
modifications: partially purified native enzyme; Dehalococcoides sp. VS
Sp act (VC reduction) ([3]; step: Anionic exchange chromotagraphy): 638 mU/mg protein
Sp act (VC reduction) ([3]; step: Cell-free extract, 1 mU = 1 nmol VC per minute): 220 mU/mg protein
Sp act (VC reduction) ([3]; step: Gelfiltration): 990 mU/mg protein
Sp act (VC reduction) ([3]; step: Membrane fraction): 346 mU/mg protein
Sp act (VC reduction) ([3]; step: Solubilized membrane fraction): 308 mU/mg protein
